Assays:
[1] = target: Muscarinic acetylcholine receptor; assay: In vitro binding affinity to the Muscarinic acetylcholine receptor by displacing [3H]OXO-M from the rat brain tissues
[2] = target: Muscarinic acetylcholine receptor; assay: In vitro binding affinity to the Muscarinic acetylcholine receptor by displacing [3H]QNB from the rat brain tissues
[3] = target: Muscarinic acetylcholine receptor; assay: In vitro binding affinity to the Muscarinic acetylcholine receptor by displacing [3H]-QNB from the rat heart tissues; type: protein assay
[4] = system: Muscarinic acetylcholine receptors (Rattus norvegicus); assay: Relative efficacy and M1 selectivity by agonist index.
[5] = target: Muscarinic acetylcholine receptor; assay: In vitro binding affinity to the Muscarinic acetylcholine receptor by displacing [3H]PZ from the rat brain tissues
[6] = target: T1, Muscarinic acetylcholine receptor M2 (Homo sapiens, UniProt P08172); assay: In Vitro activity at the cloned Human Muscarinic acetylcholine receptor M2 determined by receptor selection and amplification technology (R-SAT).
T1 sequence (P08172 whole entry): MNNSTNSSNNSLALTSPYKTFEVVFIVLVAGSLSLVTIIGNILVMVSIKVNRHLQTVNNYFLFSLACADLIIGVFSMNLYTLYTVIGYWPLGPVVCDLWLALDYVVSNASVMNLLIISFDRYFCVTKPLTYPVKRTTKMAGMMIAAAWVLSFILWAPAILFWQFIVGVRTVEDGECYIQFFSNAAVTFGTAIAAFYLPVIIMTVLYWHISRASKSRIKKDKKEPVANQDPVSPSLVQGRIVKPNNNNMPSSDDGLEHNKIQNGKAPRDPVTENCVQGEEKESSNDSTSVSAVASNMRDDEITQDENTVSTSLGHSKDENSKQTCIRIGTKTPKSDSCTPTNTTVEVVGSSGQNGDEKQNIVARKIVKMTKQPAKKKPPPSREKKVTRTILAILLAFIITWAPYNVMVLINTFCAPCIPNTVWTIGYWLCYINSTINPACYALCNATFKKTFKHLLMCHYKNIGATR

[7] = target: Muscarinic acetylcholine receptor M3 (Homo sapiens, UniProt P20309); assay: In Vitro activity at the cloned Human Muscarinic acetylcholine receptor M3 determined by receptor selection and amplification technology (R-SAT)
[8] = target: T2, Muscarinic acetylcholine receptor M1 (Homo sapiens, UniProt P11229); assay: In Vitro evaluation activity at the cloned Human Muscarinic acetylcholine receptor M1 determined by receptor selection and amplification technology (R-SAT)
T2 sequence (P11229 whole entry): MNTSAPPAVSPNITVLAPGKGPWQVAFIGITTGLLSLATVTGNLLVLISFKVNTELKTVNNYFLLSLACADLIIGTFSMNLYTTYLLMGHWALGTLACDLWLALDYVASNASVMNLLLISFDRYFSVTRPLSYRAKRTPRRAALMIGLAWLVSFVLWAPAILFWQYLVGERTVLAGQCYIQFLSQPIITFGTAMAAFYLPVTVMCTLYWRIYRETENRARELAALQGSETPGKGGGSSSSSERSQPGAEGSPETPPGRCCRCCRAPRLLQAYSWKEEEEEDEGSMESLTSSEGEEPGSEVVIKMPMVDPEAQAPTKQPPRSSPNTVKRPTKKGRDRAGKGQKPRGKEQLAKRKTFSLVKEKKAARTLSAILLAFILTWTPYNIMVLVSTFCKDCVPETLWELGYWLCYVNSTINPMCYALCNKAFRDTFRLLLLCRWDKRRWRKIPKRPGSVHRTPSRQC

[9] = target: T3, Muscarinic acetylcholine receptor M4 (Homo sapiens, UniProt P08173); assay: In Vitro activity at the cloned Human Muscarinic acetylcholine receptor M4 determined by receptor selection and amplification technology (R-SAT)
T3 sequence (P08173 whole entry): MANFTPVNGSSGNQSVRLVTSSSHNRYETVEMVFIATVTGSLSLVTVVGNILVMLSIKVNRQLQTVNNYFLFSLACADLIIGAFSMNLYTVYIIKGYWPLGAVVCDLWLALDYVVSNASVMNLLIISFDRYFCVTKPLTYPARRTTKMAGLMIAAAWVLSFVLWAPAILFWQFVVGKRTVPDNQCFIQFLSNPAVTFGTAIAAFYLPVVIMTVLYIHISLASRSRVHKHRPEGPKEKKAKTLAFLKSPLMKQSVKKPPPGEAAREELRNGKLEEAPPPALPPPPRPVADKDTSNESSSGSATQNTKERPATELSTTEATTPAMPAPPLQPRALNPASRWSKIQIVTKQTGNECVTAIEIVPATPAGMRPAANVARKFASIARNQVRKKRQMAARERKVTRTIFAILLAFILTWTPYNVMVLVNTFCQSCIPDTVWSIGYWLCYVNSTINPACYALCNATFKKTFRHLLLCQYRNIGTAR

[10] = target: T4, Muscarinic acetylcholine receptor M5 (Homo sapiens, UniProt P08912); assay: In Vitro activity at the cloned Human Muscarinic acetylcholine receptor M5 determined by receptor selection and amplification technology (R-SAT)
T4 sequence (P08912 whole entry): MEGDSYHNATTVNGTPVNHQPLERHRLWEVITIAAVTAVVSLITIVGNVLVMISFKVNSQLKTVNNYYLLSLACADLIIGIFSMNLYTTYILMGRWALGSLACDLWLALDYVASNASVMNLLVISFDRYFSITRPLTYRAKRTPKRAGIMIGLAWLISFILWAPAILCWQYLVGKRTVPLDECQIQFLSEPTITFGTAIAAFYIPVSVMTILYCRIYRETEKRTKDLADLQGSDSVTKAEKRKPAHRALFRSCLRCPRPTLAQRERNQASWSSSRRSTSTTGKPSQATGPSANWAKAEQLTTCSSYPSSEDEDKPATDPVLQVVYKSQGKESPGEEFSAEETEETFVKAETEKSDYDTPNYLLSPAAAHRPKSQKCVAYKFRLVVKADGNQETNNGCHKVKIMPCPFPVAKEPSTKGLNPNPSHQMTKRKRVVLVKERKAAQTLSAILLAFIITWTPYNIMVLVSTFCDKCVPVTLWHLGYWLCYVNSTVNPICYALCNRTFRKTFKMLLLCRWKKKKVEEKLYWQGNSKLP

[11] = target: Muscarinic acetylcholine receptor; assay: In vitro binding affinity to the Muscarinic acetylcholine receptor by displacing [3H]- Oxo-M from the rat brain tissues

Muscarinic acetylcholine receptor M3, sequence (P20309 whole entry): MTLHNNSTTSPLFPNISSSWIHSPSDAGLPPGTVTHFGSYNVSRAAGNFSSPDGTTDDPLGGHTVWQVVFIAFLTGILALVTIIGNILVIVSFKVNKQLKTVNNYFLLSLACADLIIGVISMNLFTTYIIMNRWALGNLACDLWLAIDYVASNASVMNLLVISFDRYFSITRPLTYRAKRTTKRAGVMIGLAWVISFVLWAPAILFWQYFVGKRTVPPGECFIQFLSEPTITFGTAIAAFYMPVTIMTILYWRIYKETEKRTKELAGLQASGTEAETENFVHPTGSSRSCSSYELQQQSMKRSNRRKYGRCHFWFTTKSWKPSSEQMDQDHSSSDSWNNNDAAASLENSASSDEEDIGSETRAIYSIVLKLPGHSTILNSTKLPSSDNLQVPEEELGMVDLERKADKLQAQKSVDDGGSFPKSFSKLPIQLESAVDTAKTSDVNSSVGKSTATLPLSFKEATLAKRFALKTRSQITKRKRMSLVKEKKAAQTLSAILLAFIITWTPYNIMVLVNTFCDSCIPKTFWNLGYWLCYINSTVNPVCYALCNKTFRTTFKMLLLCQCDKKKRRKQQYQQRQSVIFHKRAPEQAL

IC50 [1] [nM] | IC50 [2] [nM] | IC50 [3] [nM] | Agonist index [4] | IC50 [5] [nM] | EC50 [6] [nM] | EC50 [7] [nM] | EC50 [8] [nM] | EC50 [9] [nM] | EC50 [10] [nM] | Structure (SMILES) | IC50 [11] [nM]
11 | 370 | 360 | 5.4 | 13 | – | – | – | – | – | CC(C)Oc1noc2c1CNCCC2 | –
3.4 | 530 | 140 | 25 | 18 | 41 | 500 | 95 | 67 | – | CCOc1noc2c1CNCCC2 | –
0.75 | 480 | 82 | 104 | 23 | 6.7 | 130 | 140 | 30 | 950 | C#CCOc1noc2c1CNCCC2 | –
10 | 6400 | 350 | 104 | 390 | 43 | 620 | 460 | 240 | 4700 | COc1noc2c1CNCCC2 | –

Structure (SMILES) | IC50 [1] [nM] | IC50 [2] [nM] | IC50 [3] [nM] | Agonist index [4] | IC50 [5] [nM] | EC50 [6] [nM] | EC50 [7] [nM] | EC50 [8] [nM] | EC50 [9] [nM] | EC50 [10] [nM] | IC50 [11] [nM]
O=C1CCCN1CC#CCN1CCCC1 [OXOTREMORINE] | – | 2300 | 84 | – | 93 | – | – | – | – | – | 1.2
